From article PMC5218480 (PLoS ONE, 2017)

System: MV-4-11 cells
Test: Gene expression microarray analysis (Affymetrix PrimeView) and GSEA
Assay type: cell-based, human
Settings: ProbeSet 11754607_s_at; LIST B

Question: `Nc1ncn([C@@H]2O[C@H](CO)[C@@H](O)[C@H]2O)c(=O)n1` [azacitidine] was tested. Which “RFU, HSP90B1 /// MIR3652” value did it give?
Answer: 2647.82 RFU
